According to a melting point compilation (Tetko et al.; mined from patent text by program, amines drawn as free bases though some values may be those of a salt):

Row | Compound | melting point [°C]
1 | COC(=O)c1cc([N+](=O)[O-])c(C(F)(F)F)cc1N | 175 to 177
2 | CN1C(=O)COc2cc3c(cc21)C1(CO3)C(=O)N(CC2CCCO2)c2ccccc21 (stereo not drawn) | 79 to 81
3 | CCCCn1c(=O)c2c(NC)n(C)nc2n(Cc2ccccc2)c1=O | 146 to 148
4 | N#CC(=CC=Cc1ccccc1)C(=O)O | 196
5 | Nc1nc(N2CCC2)c2ncn(C3C=CC(CO)C3)c2n1 (stereo not drawn) | 187 to 189
6 | COC1=C(OC)C(=O)C2=C(CC(CCCCCCCCN3C(=O)c4ccccc4C3=O)C2)C1=O | 91 to 93
7 | CNC(=O)N1CC(Oc2ccc(C(F)(F)F)cc2Cl)C1 | 160 to 161
8 | CCOc1cc(NCCSCc2[nH]cnc2C)nc2ccccc12 | 152 to 154
9 | CCCCCCCC(O)CNCCCNCC(O)CCCCCCC (stereo not drawn) | 107 to 109
10 | COCC(=O)c1cccc(S(N)(=O)=O)c1 | 121 to 122
11 | Cc1onc(-c2ccc(C(F)(F)F)cc2)c1CCl | 91 to 92
12 | COc1ccc([N+](=O)[O-])cc1OCCCCl | 85 to 87
13 | Cc1ccc(-c2cc(N)c(Cl)c(C(=O)O)n2)cc1C | 192 to 194
14 | O=[N+]([O-])c1cc(C(O)CCN2CC=C(c3ccc(Cl)cc3)CC2)ccc1F (stereo not drawn) | 154 to 156
15 | CCCCCCCCCCCCCCCCCCCCOC(=O)Cl | 33 to 34
16 | CC(C)=CCN1Cc2cccc3[nH]c(=S)n(c23)CC1C (stereo not drawn) | 128
17 | CCOC(=O)c1cn2c(=O)n(CC)c3ccccc3n2c1=O | 235 to 237
18 | CN1CCN(c2nc3sc4c(NCCCN5CCOCC5)ncnc4c3c3c2COC(C)(C)C3)CC1 | 90.6 to 92.4
19 | N#Cc1ccc(N2CCC(C(N)=O)CC2)c2ccccc12 | 249 to 250
20 | CC(C)C(N)C(O)COc1ccccc1C1=NNC(=O)CC1 (stereo not drawn) | 124 to 126

Row | Compound | melting point [°C]
21 | Cc1[nH]c2ccc(OCCCCBr)cc2c1C | 119 to 120
22 | CCCC(COS(C)(=O)=O)(OC(C)C)c1ccc(Cl)cc1Cl (stereo not drawn) | 58 to 61
23 | CCN(C(=O)Cc1ccc(S(C)(=O)=O)cc1)C1CCN(C(=O)OC(C)(C)C)CC1 | 138 to 140
24 | CN1CCN(Cc2c(CO)c(Cl)nc3cc4c(cc23)OCCO4)CC1 | 178 to 180
25 | COC(=O)c1c(Br)c(F)cc2nn(C)cc12 | 146 to 147
26 | CCOC(=O)COc1ccc(C=O)cc1OC | 56 to 59
27 | CC1(c2ccccc2)CNC(=O)O1 (stereo not drawn) | 144 to 145
28 | COC(=O)c1cn2c3c(c(N4CCCC4)c(F)cc3c1=O)CCN2C | 203 to 206
29 | CS(=O)(=O)Nc1cc(F)cc(C(O)CN)c1 (stereo not drawn) | 167 to 169
30 | COc1ccc(Nc2cccc3c2C(=O)N(C2CCC(=O)NC2=O)C3=O)cc1O (stereo not drawn) | 225 to 227
31 | CC(C)(C#N)CNC(=O)c1nn(C2CCCCO2)cc1NC(=O)c1ccccn1 (stereo not drawn) | 138 to 140
32 | O=C1N(Cc2nnc(C(F)(F)F)o2)c2ccccc2C12COc1cc3c(cc12)OCCO3 (stereo not drawn) | 137 to 139
33 | CN1CCN(S(=O)(=O)c2ccc(Br)s2)CC1 | 122
34 | CCOC(=O)Cc1sc(SCc2ccc(C(=O)OC)s2)nc1C | 49 to 51
35 | CCN(CC)C(=O)C(=O)Nc1cc(C)c(S(=O)(=O)C[N+](=O)[O-])c(C)c1 | 128 to 129
36 | COc1ccc(-c2cccc(Nc3nccc(-c4sc(N)nc4-c4ccccc4)n3)c2)cc1OC | 236 to 237
37 | Cc1nc(-c2cc(C(N)=O)c(=O)[nH]c2C)cs1 | > 300
38 | COC(=O)CC1CCN(C(=O)C2CCN(c3ccc(C#N)cn3)CC2)CC1 | 112 to 115
39 | COCCS(=O)(=O)c1ccccc1S(=O)(=O)NC(=O)Nc1nc(OC)cc(OC)n1 | 187 to 192
40 | CCOC(=O)[C@@H](C)OC(=O)c1ccc([N+](=O)[O-])cc1 | 42 to 43

Row | Compound | melting point [°C]
41 | CCOC1OC(C(O)CO)C(O)C1O (stereo not drawn) | 59 to 60
42 | COc1ccc(Cl)c(Oc2c(C)nc(-c3ncccn3)nc2Cl)c1 | 110
43 | CC(C)(C)C=C[C@H](O)c1ccc(F)cc1 | 38 to 40
44 | CCCCCCOc1c(Br)ccc2c(OCCCCCC)c(Br)ccc12 | 41 to 43
45 | CCS(=O)(=O)N1C[C@H](C)N(C(=O)[C@@](C)(O)C(F)(F)F)C[C@H]1C | 142 to 144
46 | Cc1cnc2c(c1)CCCC2S(=O)(=O)c1ccccc1 (stereo not drawn) | 84 to 86
47 | CC1(C)Oc2ccc(C(=O)CCC(=O)O)cc2NC1=O | 226 to 228
48 | CCOc1nc(NCc2ccco2)nc(Oc2cccc(C(F)(F)F)c2)n1 | 97 to 99
49 | COCCNc1c([N+](=O)[O-])cc(C(F)(F)F)c(Cl)c1[N+](=O)[O-] | 106 to 108
50 | CCC(C)NC1=NS(=O)(=O)c2cc([N+](=O)[O-])ccc2N1 (stereo not drawn) | 287 to 288
51 | COc1cc(C(C)C)c2c(c1)S(=O)(=O)N(COc1cc(C(F)(F)F)nn1-c1ccccn1)C2=O | 132 to 133
52 | Cc1nc2c(Cl)cnn2c(Cl)c1CCCl | 115 to 117
53 | CCCCNC(=O)Nc1sc2c(c1C#N)CCCC2 | 170 to 171
54 | CCOC(=O)c1nc2cc(N)ccn2n1 | 150 to 171
55 | O=C(O)CNCC(=O)NC[C@@H]1CC(c2ccc(-c3ccc(N4C[C@H](Cn5ccnn5)OC4=O)cc3F)cn2)=NO1 | 200 to 210
56 | COC(=O)c1nc(-c2ccc(Cl)cc2F)cc(N)c1Br | 148 to 149
57 | CC=Cc1nc2ccc(C)cc2c(=O)[nH]1 | 232 to 233
58 | O=C(Cn1nnc2ccccc21)Nc1ccc(-n2nc(C(F)(F)F)c(Cl)c2C2CC2)nc1 | 182 to 189

The remaining lines, values ahead:

Row | melting point [°C] | Compound
59 | 105 to 107 | CCc1oc2cccc(O)c2c1C
60 | 144 | CCCc1nc(SC(F)F)c(C(=O)O)n1Cc1ccc(-c2ccccc2S(=O)(=O)NC(=O)NCc2cccc3ccccc23)cc1
61 | 102 | O=C1CCC(c2ccccc2)(c2ccccc2)C2CN(C(Cc3ccccc3)=NCc3cccnc3)CC12 (stereo not drawn)
62 | 230 to 232 | COc1cc(C(=O)N2CCCCc3cc(Cl)ccc32)ccc1NC(=O)N(C)C
63 | 230 | CCCC(=O)Nc1n[nH]c2cc(Cl)c(-c3ccc(OCc4ccccc4)cc3)cc12
64 | 181 to 185 | C=CCOc1ncc(F)c(N(N)C(=O)c2cccc(C)c2)n1
65 | 69 to 71 | Cc1ccc(C(Cl)=NO)cc1
66 | 96 to 97 | Cc1ccc(S(=O)(=O)OC[C@@H](O)Cc2cc3ccccc3[nH]2)cc1
67 | 237 to 238 | O=C(Nc1nccs1)c1nc(-c2cccc3ccccc23)[nH]c1-c1ccc([N+](=O)[O-])cc1
68 | 218 | Nc1cc(=O)n(Cc2ccc3c(c2)OCO3)[nH]1
69 | 132 to 135 | CN(C)CCCNC(=O)c1ccc(-c2ccc3nnn(Cc4ccc5ncccc5c4)c3n2)cc1
70 | 114 to 116 | CC(C)Cc1nc2ccc(Cl)cc2c(-c2ccccc2)c1CN
71 | 142 to 144 | COc1cc(Cl)c(C(=O)Nc2ccc(C(C)(C)C#N)cc2)cc1OC
72 | 187 to 188 | CCN1c2ncc(CCc3ccccc3)cc2C(=O)N(C)c2c1ncc(C)c2C
73 | 123 to 124 | COC(=O)CCSC(C)(C)C(NS(=O)(=O)c1ccc(Oc2ccc(F)cc2)cc1)C(=O)O (stereo not drawn)
74 | 43 to 45 | [N-]=[N+]=NCc1cccc(C(=O)c2ccc(Cl)cc2)c1
75 | 108 to 109 | Cc1ccccc1CN1CCc2ccc(C(=O)CCC(=O)N3CCC(c4ccc(Cl)cc4)CC3)cc2CC1
76 | 191 to 192 | Cc1c(NC(=O)c2ccccc2NCc2ccc(=O)[nH]c2)cccc1C(F)(F)F
77 | 129 to 130 | CCOC(c1cccc(OCc2nc(-c3ccccc3)oc2C)c1)c1ccc(OC)cc1OCC(=O)O (stereo not drawn)
78 | 162 to 166 | O=C(NCCCn1ccnc1)c1ccccc1NS(=O)(=O)c1ccc(I)cc1
79 | 158 to 160 | COc1ccc(CCN2C=CC=C3C2=Nc2ccccc2OS3(=O)=O)cc1O
80 | 91.4 | CCCCc1ccc(N2CCC(CCOc3ccc(C(=O)OCC)cc3)CC2)nn1
81 | 137 to 138 | COc1cccc(CN2C(=O)CCc3cc(O)c(OC)cc32)c1

Row | melting point [°C] | Compound
82 | 120 to 121 | CC1(C)OC(c2ccc(S(N)(=O)=O)cc2)=C(c2cc3ccccc3s2)C1=O
83 | 115 to 116 | Oc1nn(-c2ccccn2)c(-c2ccccc2)c1Cc1ccccc1
84 | 135 to 137 | Cc1cc(-c2ccco2)ccc1C(=O)CC(=O)C(F)(F)F
85 | 118 to 120 | O=C1CCCN1c1cccc2cccnc12
86 | 142 to 144 | Cc1ccc(NS(=O)(=O)c2ccccc2)cc1N
87 | 198 | N#Cc1cnn2c(C(F)(F)F)cc(-c3ccc(F)cc3)nc12
88 | 175 to 176 | O=C(O)c1ccccc1-c1cc(-c2cccc(C(F)(F)F)c2)no1
89 | 224 to 227 | Cc1ccc(NC(=O)c2ccccc2SSc2ccccc2C(=O)Nc2ccc(C)c(C)c2)cc1C
90 | 211 to 212 | O=C(O)Cn1c(=O)c2cc(Cl)ccc2n(Cc2ccc(F)cc2)c1=O
91 | > 250 | c1ccc(-c2cccc3[nH]c4c(c23)CCNCC4)cc1
92 | 206 | CNc1cc(Sc2ccc(O)cc2)c(N)cc1[N+](=O)[O-]
93 | 318 to 320 | O=c1[nH]c2ncc(-c3ccc(O)cc3)nc2n1C1CCCCC1
94 | 171 | CC(Cc1nc(-c2ccccc2)nc2ccccc12)C(=O)N(C)C(C)C (stereo not drawn)
95 | 174 to 176 | COc1cc(SCc2ccccc2)c([N+](=O)[O-])cc1OC
96 | 202 to 204 | CCCc1c(CNc2ccc(C(=O)O)cc2)ccc(C(C)=O)c1O
97 | 163 to 164 | N#Cc1ccc(Cc2ccc(O)cc2)cc1
98 | 105 to 106 | O=C(c1ccccc1)N1N=CCC1c1ccccc1 (stereo not drawn)
99 | 123 | COC(C(=O)O)c1nn(-c2ccc(Br)cc2)c2c1CCCC2 (stereo not drawn)
100 | 82 | CCCN(CCC)C1CCc2cccc(-c3ccc4ccccc4n3)c2C1 (stereo not drawn)
101 | 169 to 180 | Cc1nnc(-c2ccc(CN3C(=O)C4(COc5cc6c(cc54)CCO6)c4ccccc43)cc2)[nH]1 (stereo not drawn)
102 | 84.5 | CCOC(=O)COc1c(C)c(C(=O)c2ccc(C(=O)OC)cc2)n2ccccc12
103 | 198 to 200 | NCCCC1(C(N)=O)c2ccccc2-c2ccccc21
